Patent publication US10336739B2, “4-hydroxy-3-(heteroaryl)pyridine-2-one APJ agonists” (BRISTOL-MYERS SQUIBB COMPANY, priority 2015, dated 2019)

These molecules were tested against human APJ receptor (Homo sapiens (Human), UniProt P35414) (assay: Intracellular cAMP accumulation assay (APJ hcAMP, HTRF)). Settings: HEK293 cells stably expressing human APJ receptor; inhibition of forskolin-mediated cAMP production; read-out: Human APJ cAMP EC50 Potency range.
Sequence of human APJ receptor (P35414 whole entry): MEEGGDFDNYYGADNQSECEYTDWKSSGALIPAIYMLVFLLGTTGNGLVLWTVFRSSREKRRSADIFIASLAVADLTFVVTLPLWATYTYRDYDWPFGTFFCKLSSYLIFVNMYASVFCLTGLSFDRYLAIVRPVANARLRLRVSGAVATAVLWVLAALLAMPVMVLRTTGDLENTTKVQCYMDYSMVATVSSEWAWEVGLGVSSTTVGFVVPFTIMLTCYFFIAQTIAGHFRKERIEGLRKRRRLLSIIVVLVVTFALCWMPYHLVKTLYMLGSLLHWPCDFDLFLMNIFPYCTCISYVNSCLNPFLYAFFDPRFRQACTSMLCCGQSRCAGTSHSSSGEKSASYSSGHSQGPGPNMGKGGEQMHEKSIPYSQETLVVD
Type: cell-based
Procedure, shortened: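 HEK293 cells stably expressing human APJ, 5,000 per well, exposed to compound with […] IBMX and 2 μM forskolin for 30 minutes at room temperature. cAMP measured by HTRF after lysis and 60 min detection incubation. EC50 from sigmoidal variable-slope fits of inhibition of forskolin-induced cAMP, quantified against a cAMP standard curve.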
In the case of CCCCc1[nH]c(=O)c(-c2nnc(Cc3csc(C)n3)o2)c(O)c1-c1cccc(CC)c1 [Example 137, 6-butyl-5-(3-ethylphenyl)-4-hydroxy-3-{5-[(2-methyl-1,3-thiazol-4-yl)methyl]-1,3,4-oxadiazol-2-yl}-1,2-dihydropyridin-2-one], the EC50 is reported as 10 to 100 nM.
In the case of CCOCc1nc(O)c(-c2nnc(Cc3ccc(Cl)cc3)o2)c(O)c1-c1c(O)cccc1O [Example 229, 3-{5-[(4-chlorophenyl)methyl]-1,3,4-oxadiazol-2-yl}-5-(2,6-dihydroxyphenyl)-6-(ethoxymethyl)pyridine-2,4-diol], the EC50 is reported as 10 to 100 nM.
With CCOCc1nc(O)c(-c2nnc(Cc3noc4ccccc34)s2)c(O)c1-c1c(OC)cccc1OC [Example 231, 3-{5-[(1,2-benzoxazol-3-yl)methyl]-1,3,4-thiadiazol-2-yl}-5-(2,6-dimethoxyphenyl)-6-(ethoxymethyl)pyridine-2,4-diol] the EC50 was 10 to 100 nM.

Same assay, conditions: HEK293 cells stably expressing human APJ receptor; inhibition of forskolin-mediated cAMP production; read-out: hAPJ cAMP EC50 (nM) Potency range
CCOCc1nc(O)c(-c2nnc(CC(=O)Nc3nccs3)o2)c(O)c1-c1c(OC)cccc1OC [Example 253, 2-{5-[5-(2,6-dimethoxyphenyl)-6-(ethoxymethyl)-2,4-dihydroxypyridin-3-yl]-1,3,4-oxadiazol-2-yl}-N-(1,3-thiazol-2-yl)acetamide] gave an EC50 of 0.01 to 10 nM.
With CCCCc1nc(O)c(-c2nnc(CC(=O)NCc3cccc(Cl)c3)o2)c(O)c1-c1c(OC)cccc1OC [Example 259, 2-{5-[6-butyl-5-(2,6-dimethoxyphenyl)-2,4-dihydroxy-pyridin-3-yl]-1,3,4-oxadiazol-2-yl}-N-[(3-chlorophenyl)methyl]acetamide] the EC50 was 0.01 to 10 nM.
CCOCc1nc(O)c(-c2nnc(CNC(=O)c3ccccn3)s2)c(O)c1-c1c(OC)cccc1OC [Example 235, N-({5-[5-(2,6-dimethoxyphenyl)-6-(ethoxymethyl)-2,4-dihydroxypyridin-3-yl]-1,3,4-thiadiazol-2-yl}methyl) pyridine-2-carboxamide] was tested, and the EC50 was 10 to 100 nM.

Same assay, conditions: HEK293 cells stably expressing human APJ receptor; inhibition of forskolin-mediated cAMP production; read-out: hAPJ cAMP EC50 Potency range
CCOCc1nc(O)c(-c2nnc(Cc3n[nH]c4ccccc34)o2)c(O)c1-c1c(OC)cccc1OC [Example 132, 5-(2,6-dimethoxyphenyl)-6-(ethoxymethyl)-3-[5-(1H-indazol-3-ylmethyl)-1,3,4-oxadiazol-2-yl]pyridine-2,4-diol] gave an EC50 of 0.01 to 10 nM.
In the case of CCCCc1nc(O)c(-c2nnc(Cn3ccnc3)o2)c(O)c1-c1c(OC)cccc1OC [Example 115, 6-butyl-5-(2,6-dimethoxyphenyl)-3-[5-(1H-imidazol-1-ylmethyl)-1,3,4-oxadiazol-2-yl]pyridine-2,4-diol], the EC50 is reported as 10 to 100 nM.
Molecule CCCCc1nc(O)c(-c2nnc(Cc3nc(-c4ccccc4)sc3C)o2)c(O)c1-c1c(OC)cccc1OC [Example 84, 6-butyl-5-(2,6-dimethoxyphenyl)-3-{5-[(5-methyl-2-phenyl-1,3-thiazol-4-yl)methyl]-1,3,4-oxadiazol-2-yl}pyridine-2,4-diol] has an EC50 of 0.01 to 10 nM.
Molecule CCCCc1nc(O)c(-c2nnc(CN)o2)c(O)c1-c1c(OC)cccc1OC [Example 170, 3-[5-(aminomethyl)-1,3,4-oxadiazol-2-yl]-6-butyl-5-(2,6-dimethoxyphenyl) pyridine-2,4-diol] has an EC50 of 10 to 100 nM.
Work on CCCCc1nc(O)c(-c2nnc(Cc3nnc(-c4cccnc4)o3)o2)c(O)c1-c1c(OC)cccc1OC [Example 211, 6-butyl-5-(2,6-dimethoxyphenyl)-3-(5-{[5-(pyridin-3-yl)-1,3,4-oxadiazol-2-yl]methyl}-1,3,4-oxadiazol-2-yl)pyridine-2,4-diol] yielded an EC50 of 10 to 100 nM.
CCOCc1nc(O)c(-c2nnc(Cc3ccc(F)cn3)o2)c(O)c1-c1c(OC)cccc1OC [Example 124, 5-(2,6-dimethoxyphenyl)-6-(ethoxymethyl)-3-{5-[(5-fluoropyridin-2-yl)methyl]-1,3,4-oxadiazol-2-yl}pyridine-2,4-diol] was tested, and the EC50 was 0.01 to 10 nM.
Molecule CCOCc1nc(O)c(-c2nnc(Cn3ncc4ccccc43)o2)c(O)c1-c1c(OC)cccc1OC [Example 134, 5-(2,6-dimethoxyphenyl)-6-(ethoxymethyl)-3-[5-(1H-indazol-1-ylmethyl)-1,3,4-oxadiazol-2-yl]pyridine-2,4-diol] has an EC50 of 0.01 to 10 nM.
CCCCc1nc(O)c(-c2nnc(Cc3ccc(F)c(F)c3)o2)c(O)c1-c1cccc(C(=O)NC(C)C)c1 [Example 147, 3-(2-butyl-5-{5-[(3,4-difluorophenyl)methyl]-1,3,4-oxadiazol-2-yl}-4,6-dihydroxypyridin-3-yl)-N-(propan-2-yl)benzamide] gave an EC50 of 10 to 100 nM.
In the case of CCCCc1[nH]c(=O)c(-c2nnc(Cc3csc(C)n3)o2)c(O)c1-c1cccc(N2CCCC2)c1 [Example 153, 6-butyl-4-hydroxy-3-{5-[(2-methyl-1,3-thiazol-4-yl)methyl]-1,3,4-oxadiazol-2-yl}-5-[3-(pyrrolidin-1-yl)phenyl]-1,2-dihydropyridin-2-one], the EC50 is reported as 10 to 100 nM.
CCCCc1nc(O)c(-c2nnc(Cc3n[nH]c4ccccc34)o2)c(O)c1-c1c(OC)cccc1OC [Example 43, 6-butyl-5-(2,6-dimethoxyphenyl)-3-[5-(1H-indazol-3-ylmethyl)-1,3,4-oxadiazol-2-yl]pyridine-2,4-diol] showed an EC50 of 0.01 to 10 nM.
CCCCc1nc(O)c(-c2nnc(CCc3nc(-c4ccccc4)no3)o2)c(O)c1-c1c(OC)cccc1OC [Example 77, 6-butyl-5-(2,6-dimethoxyphenyl)-3-{5-[2-(3-phenyl-1,2,4-oxadiazol-5-yl)ethyl]-1,3,4-oxadiazol-2-yl}pyridine-2,4-diol] gave an EC50 of 10 to 100 nM.
For CCCCc1[nH]c(=O)c(-c2nnc(Cc3csc(C)n3)o2)c(O)c1-c1cccc(OC)c1 [Example 151, 6-butyl-4-hydroxy-5-(3-methoxyphenyl)-3-{5-[(2-methyl-1,3-thiazol-4-yl)methyl]-1,3,4-oxadiazol-2-yl}-1,2-dihydropyridin-2-one], the EC50 was 0.01 to 10 nM.
CCCCc1nc(O)c(-c2nnc(Cc3ccc(F)c(F)c3)o2)c(O)c1-c1cccc(OC(F)(F)F)c1 [Example 141, 6-butyl-3-{5-[(3,4-difluorophenyl)methyl]-1,3,4-oxadiazol-2-yl}-5-[3-(trifluoromethoxy)phenyl]pyridine-2,4-diol] was tested, and the EC50 was 10 to 100 nM.
CCCCc1nc(O)c(-c2nnc(Cc3cnn(C)c3)o2)c(O)c1-c1c(OC)cccc1OC [Example 102, 6-butyl-5-(2,6-dimethoxyphenyl)-3-{5-[(1-methyl-1H-pyrazol-4-yl)methyl]-1,3,4-oxadiazol-2-yl}pyridine-2,4-diol] gave an EC50 of 100 to 300 nM.
For CCCCc1nc(O)c(-c2nnc(CCc3ncc(-c4ccccc4)o3)o2)c(O)c1-c1c(OC)cccc1OC [Example 28, 6-butyl-5-(2,6-dimethoxyphenyl)-3-{5-[2-(5-phenyl-1,3-oxazol-2-yl)ethyl]-1,3,4-oxadiazol-2-yl}pyridine-2,4-diol], the EC50 was 10 to 100 nM.
Molecule CCCCc1nc(O)c(-c2nnc(CC(N)=O)o2)c(O)c1-c1c(OC)cccc1OC [Example 180, 2-{5-[6-butyl-5-(2,6-dimethoxyphenyl)-2,4-dihydroxypyridin-3-yl]-1,3,4-oxadiazol-2-yl}acetamide] has an EC50 of 10 to 100 nM.
Molecule CCCCc1nc(O)c(-c2nnc(Cc3ccc(C#N)cc3)o2)c(O)c1-c1c(OC)cccc1OC [Example 37, 4-({5-[6-butyl-5-(2,6-dimethoxyphenyl)-2,4-dihydroxypyridin-3-yl]-1,3,4-oxadiazol-2-yl}methyl) benzonitrile] has an EC50 of 0.01 to 10 nM.
CCCCc1nc(O)c(-c2nnc(Cc3ccc(OC)cc3)o2)c(O)c1-c1c(OC)cccc1OC [Example 9, 6-butyl-5-(2,6-dimethoxyphenyl)-3-{5-[(4-methoxyphenyl)methyl]-1,3,4-oxadiazol-2-yl}pyridine-2,4-diol] gave an EC50 of 0.01 to 10 nM.
Molecule CCCCc1nc(O)c(-c2nnc(CC(C)(C)c3ccc(Cl)cc3)o2)c(O)c1-c1c(OC)cccc1OC [Example 54, 6-butyl-3-{5-[2-(4-chlorophenyl)-2-methylpropyl]-1,3,4-oxadiazol-2-yl}-5-(2,6-dimethoxyphenyl) pyridine-2,4-diol] has an EC50 of 0.01 to 10 nM.
Molecule CCCCc1nc(O)c(-c2nnc(CC(=O)NC)o2)c(O)c1-c1c(OC)cccc1OC [Example 179, 2-{5-[6-butyl-5-(2,6-dimethoxyphenyl)-2,4-dihydroxypyridin-3-yl]-1,3,4-oxadiazol-2-yl}-N-methylacetamide] has an EC50 of 0.01 to 10 nM.
CCCCc1nc(O)c(-c2nnc(CNC(=O)c3ccccn3)o2)c(O)c1-c1c(OC)cccc1OC [Example 168, N-({5-[6-butyl-5-(2,6-dimethoxyphenyl)-2,4-dihydroxypyridin-3-yl]-1,3,4-oxadiazol-2-yl}methyl)pyridine-2-carboxamide] showed an EC50 of 0.01 to 10 nM.
With CCOCc1nc(O)c(-c2nnc(Cc3cnn(C)c3)o2)c(O)c1-c1c(OC)cccc1OC [Example 130, 5-(2,6-dimethoxyphenyl)-6-(ethoxymethyl)-3-{5-[(1-methyl-1H-pyrazol-4-yl)methyl]-1,3,4-oxadiazol-2-yl}pyridine-2,4-diol] the EC50 was 10 to 100 nM.
CCCCc1nc(O)c(-c2nnc(C(C)(C)c3ccc(Cl)cc3)o2)c(O)c1-c1c(OC)cccc1OC [Example 31, 6-butyl-3-{5-[2-(4-chlorophenyl)propan-2-yl]-1,3,4-oxadiazol-2-yl}-5-(2,6-dimethoxyphenyl) pyridine-2,4-diol] was tested, and the EC50 was 0.01 to 10 nM.
In the case of CCOCc1nc(O)c(-c2nnc(Cn3ccc(-c4ccccc4)n3)o2)c(O)c1-c1c(OC)cccc1OC [Example 128, 5-(2,6-dimethoxyphenyl)-6-(ethoxymethyl)-3-{5-[(3-phenyl-1H-pyrazol-1-yl)methyl]-1,3,4-oxadiazol-2-yl}pyridine-2,4-diol], the EC50 is reported as 0.01 to 10 nM.

Same assay, conditions: hAPJ cAMP EC50 Potency range (nM), HEK293 cells stably expressing human APJ receptor; inhibition of forskolin-mediated cAMP production
For CCCCc1nc(O)c(-c2nnc(CN3CCOC3=O)o2)c(O)c1-c1c(OC)cccc1OC [Example 116, 3-({5-[6-butyl-5-(2,6-dimethoxyphenyl)-2,4-dihydroxypyridin-3-yl]-1,3,4-oxadiazol-2-yl}methyl)-1,3-oxazolidin-2-one], the EC50 was 0.01 to 10 nM.
